Data on 18 molecules can be found in patent US10072011B2, “Substituted bridged urea analogs as sirtuin modulators” (GlaxoSmithKline Intellectual Property (No.2) Limited, priority 2014, dated 2018).

In the experiment the target is T1, SIRT1 (Homo sapiens, UniProt Q96EB6).
T1 sequence (Q96EB6 1-747): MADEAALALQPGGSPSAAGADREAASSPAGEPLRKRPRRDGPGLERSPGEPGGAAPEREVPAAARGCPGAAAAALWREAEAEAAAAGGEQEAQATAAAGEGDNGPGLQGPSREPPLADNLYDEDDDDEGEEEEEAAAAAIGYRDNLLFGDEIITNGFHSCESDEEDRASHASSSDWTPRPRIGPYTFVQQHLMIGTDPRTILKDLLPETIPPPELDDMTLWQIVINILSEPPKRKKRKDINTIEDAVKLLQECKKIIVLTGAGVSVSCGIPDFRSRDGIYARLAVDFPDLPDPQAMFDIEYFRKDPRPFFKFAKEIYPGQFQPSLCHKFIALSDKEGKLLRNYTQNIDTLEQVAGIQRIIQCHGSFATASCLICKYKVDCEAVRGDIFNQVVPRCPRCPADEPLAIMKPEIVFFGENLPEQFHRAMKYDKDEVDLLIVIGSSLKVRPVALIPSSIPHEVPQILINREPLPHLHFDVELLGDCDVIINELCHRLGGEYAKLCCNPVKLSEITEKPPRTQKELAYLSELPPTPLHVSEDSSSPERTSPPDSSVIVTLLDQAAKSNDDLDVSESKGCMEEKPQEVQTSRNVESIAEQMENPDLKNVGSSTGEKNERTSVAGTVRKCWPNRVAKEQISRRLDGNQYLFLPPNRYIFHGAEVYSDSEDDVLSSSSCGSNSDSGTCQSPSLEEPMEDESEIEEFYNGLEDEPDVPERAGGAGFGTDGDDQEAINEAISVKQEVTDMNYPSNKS
As to the kind of experiment: Trp mass spectrometry assay of SIRT1 activation (Ac-R-H-K-K(Ac)-W-NH2 peptide). In kind it is biochemical. The conditions noted are these: for Emax: 25 min, read-out: TRP MAX RESP (percent maximum fold activation). The procedure, abridged: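 Mass spectrometry read-out (OAADPR formed, or deacetylated Trp peptide) after a 25 min NAD-dependent deacetylation by E. coli-expressed His-SIRT1, stopped with formic acid.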

[1] abbreviates: Trp peptide 0.5 μM, 120 μM βNAD+, 10 nM SIRT1, 25 min at 25° C., relative to control (100%).
The mark [2] stands for this setting: Trp peptide 0.5 μM, 120 μM βNAD+, 10 nM SIRT1, 25 min at 25° C.

SMILES strings stand for the structures. Where two headings read alike, the source gives them in different places.

Take `O=C(NCC(F)(F)CO)c1ccc2c(n1)N(C(=O)Nc1ccccn1)[C@H]1CCN2C1` [Example 117, (4S)—N7-(2,2-difluoro-3-hydroxypropyl)-N5-(pyridin-2-yl)-3,4-dihydro-1,4-methanopyrido[2,3-b][1,4]diazepine-5,7(2H)-dicarboxamide]: the Emax under setting [1] was greater than 150%. Also, the “TRP Activity (EC1.5, concentration of test compound that results in 150% activation of SIRT1)” value under setting [2] is reported as “A (EC1.5<1 μM)”.
Taken in the same sequence, the figures for `O=C(NCC(F)(F)F)c1ccc2c(n1)N(C(=O)Nc1cnc(OC[C@@H](O)CO)cn1)[C@H]1CCN2C1` [Example 118, (4S)—N5-(5-((S)-2,3-dihydroxypropoxy)pyrazin-2-yl)-N7-(2,2,2-trifluoroethyl)-3,4-dihydro-1,4-methanopyrido[2,3-b][1,4]diazepine-5,7(2H)-dicarboxamide] were greater than 150% and “B (EC1.5 1-25 μM)”.
Taken in the same sequence, the figures for `Cn1cnc(NC(=O)N2c3nc(C(=O)NCC(F)(F)F)ccc3N3CC[C@H]2C3)cc1=O` [Example 120, (4S)—N5-(1-methyl-6-oxo-1,6-dihydropyrimidin-4-yl)-N7-(2,2,2-trifluoroethyl)-3,4-dihydro-1,4-methanopyrido[2,3-b][1,4]diazepine-5,7(2H)-dicarboxamide] were greater than 150% and “B (EC1.5 1-25 μM)”.
Turning to `Cn1nccc(NC(=O)N2c3nc(C(=O)NCC(F)(F)F)ccc3N3CC[C@H]2C3)c1=O` [Example 121, (4S)—N5-(2-methyl-3-oxo-2,3-dihydropyridazin-4-yl)-N7-(2,2,2-trifluoroethyl)-3,4-dihydro-1,4-methanopyrido[2,3-b][1,4]diazepine-5,7(2H)-dicarboxamide], the Emax was greater than 150%. Also, under setting [2], the “TRP Activity (EC1.5, concentration of test compound that results in 150% activation of SIRT1)” value is given as “A (EC1.5<1 μM)”.
Regarding `C[C@@H](NC(=O)c1ccc2c(n1)N(C(=O)Nc1ccnn(C)c1=O)[C@H]1CCN2C1)C(F)(F)F` [Example 122, (4S)—N5-(2-methyl-3-oxo-2,3-dihydropyridazin-4-yl)-N7-((R)-1,1,1-trifluoropropan-2-yl)-3,4-dihydro-1,4-methanopyrido[2,3-b][1,4]diazepine-5,7(2H)-dicarboxamide], the Emax under setting [1] is greater than 150%. Moreover, the “TRP Activity (EC1.5, concentration of test compound that results in 150% activation of SIRT1)” value under setting [2] is recorded as “A (EC1.5<1 μM)”.
For `Cc1ncc(-c2ccnc(NC(=O)N3c4nc(C(=O)NC5CC5)ccc4N4CC[C@H]3C4)c2)o1` [Example 123, (4S)—N7-cyclopropyl-N5-(4-(2-methyloxazol-5-yl)pyridin-2-yl)-3,4-dihydro-1,4-methanopyrido[2,3-b][1,4]diazepine-5,7(2H)-dicarboxamide], in that order: greater than 150% and “B (EC1.5 1-25 μM)”.
For `O=C(NCCC(F)(F)F)c1ccc2c(n1)N(C(=O)Nc1ccccn1)[C@H]1CCN2C1` [Example 124, (4S)—N5-(pyridin-2-yl)-N7-(3,3,3-trifluoropropyl)-3,4-dihydro-1,4-methanopyrido[2,3-b][1,4]diazepine-5,7(2H)-dicarboxamide], in that order: greater than 150% and “A (EC1.5<1 μM)”.
For `Cc1ncc(-c2ccnc(NC(=O)N3c4nc(C(=O)N[C@@H](C)C(F)(F)F)ccc4N4CC[C@H]3C4)c2)o1` [Example 126, (4S)—N5-(4-(2-methyloxazol-5-yl)pyridin-2-yl)-N7-((S)-1,1,1-trifluoropropan-2-yl)-3,4-dihydro-1,4-methanopyrido[2,3-b][1,4]diazepine-5,7(2H)-dicarboxamide], in that order: greater than 150% and “B (EC1.5 1-25 μM)”.
On to `C[C@H](NC(=O)c1ccc2c(n1)N(C(=O)Nc1cc(-c3cnco3)ccn1)[C@H]1CCN2C1)C(F)(F)F` [Example 127, (4S)—N5-(4-(oxazol-5-yl)pyridin-2-yl)-N7-((S)-1,1,1-trifluoropropan-2-yl)-3,4-dihydro-1,4-methanopyrido[2,3-b][1,4]diazepine-5,7(2H)-dicarboxamide], for which, under setting [1], the Emax was greater than 150%. The “TRP Activity (EC1.5, concentration of test compound that results in 150% activation of SIRT1)” value under setting [2] was “B (EC1.5 1-25 μM)”.
For `Cc1ncc(-c2ccnc(NC(=O)N3c4nc(C(=O)N[C@H](C)C(F)(F)F)ccc4N4CC[C@H]3C4)c2)o1` [Example 128, (4S)—N5-(4-(2-methyloxazol-5-yl)pyridin-2-yl)-N7-((R)-1,1,1-trifluoropropan-2-yl)-3,4-dihydro-1,4-methanopyrido[2,3-b][1,4]diazepine-5,7(2H)-dicarboxamide], in that order: greater than 150% and “A (EC1.5<1 μM)”.
Taken in the same sequence, the figures for `C[C@@H](NC(=O)c1ccc2c(n1)N(C(=O)Nc1ccc(F)cn1)[C@H]1CCN2C1)C(F)(F)F` [Example 129, (4S)—N5-(5-fluoropyridin-2-yl)-N7-((R)-1,1,1-trifluoropropan-2-yl)-3,4-dihydro-1,4-methanopyrido[2,3-b][1,4]diazepine-5,7(2H)-dicarboxamide] were greater than 150% and “A (EC1.5<1 μM)”.
For `C[C@@H](NC(=O)c1ccc2c(n1)N(C(=O)Nc1ncccn1)[C@H]1CCN2C1)C(F)(F)F` [Example 130, (4S)—N5-(pyrimidin-2-yl)-N7-((R)-1,1,1-trifluoropropan-2-yl)-3,4-dihydro-1,4-methanopyrido[2,3-b][1,4]diazepine-5,7(2H)-dicarboxamide], in that order: greater than 150% and “A (EC1.5<1 μM)”.
Regarding `C[C@@H](NC(=O)c1ccc2c(n1)N(C(=O)Nc1cc(C(=O)NCCO)ccn1)[C@H]1CCN2C1)C(F)(F)F` [Example 131, (4S)—N5-(4-((2-hydroxyethyl)carbamoyl)pyridin-2-yl)-N7-((R)-1,1,1-trifluoropropan-2-yl)-3,4-dihydro-1,4-methanopyrido[2,3-b][1,4]diazepine-5,7(2H)-dicarboxamide], under setting [1], the Emax was greater than 150%. Besides, the “TRP Activity (EC1.5, concentration of test compound that results in 150% activation of SIRT1)” value under setting [2] is recorded as “A (EC1.5<1 μM)”.
In the case of `C[C@@H](NC(=O)c1ccc2c(n1)N(C(=O)Nc1cc(OCCO)ccn1)[C@H]1CCN2C1)C(F)(F)F` [Example 132, (4S)—N5-(4-(2-hydroxyethoxy)pyridin-2-yl)-N7-((R)-1,1,1-trifluoropropan-2-yl)-3,4-dihydro-1,4-methanopyrido[2,3-b][1,4]diazepine-5,7(2H)-dicarboxamide], under setting [1], the Emax was greater than 150%. Moreover, the “TRP Activity (EC1.5, concentration of test compound that results in 150% activation of SIRT1)” value under setting [2] is reported as “A (EC1.5<1 μM)”.
For `O=C(NCC(F)(F)F)c1ccc2c(n1)N(C(=O)Nc1cc3c(cn1)OCCC3)[C@H]1CCN2C1` [Example 133, (4S)—N5-(3,4-dihydro-2H-pyrano[2,3-c]pyridin-6-yl)-N7-(2,2,2-trifluoroethyl)-3,4-dihydro-1,4-methanopyrido[2,3-b][1,4]diazepine-5,7(2H)-dicarboxamide], in that order: greater than 150% and “A (EC1.5<1 μM)”.
Taken in the same sequence, the figures for `C[C@@H](NC(=O)c1ccc2c(n1)N(C(=O)Nc1cc(-c3cnco3)ccn1)[C@H]1CCN2C1)C(F)(F)F` [Example 134, (4S)—N5-(4-(oxazol-5-yl)pyridin-2-yl)-N7-((R)-1,1,1-trifluoropropan-2-yl)-3,4-dihydro-1,4-methanopyrido[2,3-b][1,4]diazepine-5,7(2H)-dicarboxamide] were greater than 150% and “A (EC1.5<1 μM)”.
Taken in the same sequence, the figures for `COc1ccnc(NC(=O)N2c3nc(C(=O)N[C@H](C)C(F)(F)F)ccc3N3CC[C@H]2C3)c1` [Example 135, (4S)—N5-(4-methoxypyridin-2-yl)-N7-((R)-1,1,1-trifluoropropan-2-yl)-3,4-dihydro-1,4-methanopyrido[2,3-b][1,4]diazepine-5,7(2H)-dicarboxamide] were greater than 150% and “A (EC1.5<1 μM)”.
For `COc1ccnc(NC(=O)N2c3nc(C(=O)NCC(F)(F)F)ccc3N3CC[C@H]2C3)c1` [Example 136, (4S)—N5-(4-methoxypyridin-2-yl)-N7-(2,2,2-trifluoroethyl)-3,4-dihydro-1,4-methanopyrido[2,3-b][1,4]diazepine-5,7(2H)-dicarboxamide], the Emax under setting [1] was greater than 150%. The “TRP Activity (EC1.5, concentration of test compound that results in 150% activation of SIRT1)” value under setting [2] is “A (EC1.5<1 μM)”.
